Columns and labels:
[1] = tested on: Hbb^th3/+ mice; test: Erythrocyte membrane-associated α-globin detection and quantification (TAU gel electrophoresis, densitometry); type: in vivo, mouse; settings: Hbb^th3/+ animals vs vehicle-treated; TAU gel electrophoresis (FIG. 1)
Description: Fresh EDTA-blood samples of mice from each group were pooled (blood from 2 mice/pool), lysed, and membrane lipids were extracted, as previously described (Sorensen S, Rubin E, Polster H, Mohandas N, Schrier S. “The role of membrane skeletal-associated alpha-globin in the pathophysiology of beta-thalassemia.” Blood. 1990 Mar. 15; 75(6):1333-6). The insoluble membrane fraction was separated by electrophoresis on triton acetic acid urea (TAU) gels and visualized by Coomassie staining (Alter B et al, Br J Haematol 44:527, 1980). The signal intensity of the α-globin bands was quantified by densitometry using LAS-4000 Image Analyzer with Multi Gauge v.3 software (GE Healthcare Life Sciences).
Blood samples are washed three times with ice cold DPBS in the presence of 1 mM EDTA and lysed in an ice-cold hypotonic lysis buffer (5 mM sodium phosphate, pH 7.6 containing Complete Ultra protease inhibitors, Roche). The soluble Hb is collected to serve as standard on the gel. The erythrocyte ghosts are further washed three times by resuspending in hypotonic lysis buffer and centrifugation at 21'000×g. Membrane lipids are extracted in 50 mM sodium borate pH 8, 1 mM EDTA, 0.5% Triton X-100 (Sigma-Aldrich) and protease inhibitors. […]

[2] = tested on: rats; test: Serum iron after a single oral dose in rats; type: in vivo, rat; settings: single oral dose of 100 mg/kg in rats
[3] = tested on: C57BL/6 WT mice; test: Serum iron in C57BL/6 WT mice (previous study); type: in vivo, mouse; settings: C57BL/6 WT mice dosed with 120 mg/kg for 20 h

**Q.** O=C(NCc1ncccc1F)c1coc(CCNCCc2nc3ccccc3[nH]2)n1 [Fpn127] was tested. Which “levels of toxic α-globin/heme aggregates in RBC membrane skeleton preparations” value [1] did it give?
**A.** The value was “significant dose-dependent decrease”.

**Q.** What about the “duration of reduction in serum iron” value [2] of the same compound?
**A.** Its value is “at least 8 h”.

**Q.** And the “serum iron in WT mice” value [3]?
**A.** Its value is “restored to the baseline levels”.

Reference: US12533348B2, “Ferroportin-inhibitors for the use in the treatment of transfusion-dependent beta-thalassemia (TDT)” (Vifor (International) AG, priority 2019, dated 2026)
